Where two headings read alike, the source gives them in different places.
Experiments:
[1] = tested on: NE-4C; assay: CCK-8 cell viability, NE-4C neural stem cell line; type: cell-based; conditions: for IC50: serum-free medium, 24 hours, CCK-8, mean ± SD of 2 to 3 experiments, read-out: IC50 NC-4C (Neural stem cell); for toxicity against brain neurons, in words: brain neurons (NE-4C), FIG. 4
Procedure: (§1) CCK-8 (Cell counting kit-8) is analyzed using a highly water-soluble tetrazolium salt-[…]. [2-(2-methoxy-4-nitrophenyl)-3-(4-nitrophenyl)(2,4-disulfophenyl)-2H-tetrazolium, monosodium salt] is reduced under the presence of an electron medium to produces a water-soluble formazan orange dye. The amount of the formazan dye produced by dehydrogenase in a cell is directly proportional to the number of living cells.
(§2) In an experimental method for evaluating the properties of the compounds according to the present disclosure, various cancer cell lines derived from humans and normal cell lines of each tissue derived from humans and mice were used in this experiment. A complete growth medium corresponding to each cell line and having 10% of heat-inactivated FBS added thereto was used to maintain corresponding cells. The maintained cells were suspended in a volume of 200 μl at a density of 1 or 1.5×10^4 cells and planted in each well of a 96 well plate. The cells were attached to a 37° C. and 5% CO2 incubator for more than 14 hours, and we waited for a stable state. The next day, we removed the medium from the well. 100 μl of serum-free medium containing drugs of various concentrations (0 (control), 2.5, 5, 10, 20, 30, 40, 50, 100, 200 μM) was added to each well and the cells was cultured therein. On 22 hours after the incubation, 10 μl of CCK-8 solution was added to each well, followed by incubation for 2 hours. A plate on which the culture was completed was measured in terms of absorbance at 450 nm using a microplate reader.
(§3) Cell Viability Calculation:
(§4) • A: Absorbance value measured in a control well • B: Absorbance value measured in a well containing the drug
(§5) In Table 1 below, each compound was applied to the cells at 0, 2.5, 5, 10, 20, 30, 40, 50, 100, and 200 μM, and the cells was cultured in a medium free of serum for 24 hours. The measured absorbance value was converted to a % value based on a value of 0, such that a IC50 value was calculated. Each experiment was performed 2 to 3 times and a standard deviation value was obtained.

[2] = tested on: MDA-MB-231; assay: CCK-8 cell viability, MDA-MB-231 breast cancer cell line; type: cell-based, human; conditions: 24 hours, mean ± SD of 2 to 3 experiments
Procedure: (§6) To identify the anticancer effect of the compounds L1, L2, and L3 according to Examples 1 to 3 of the present disclosure, and the complexes L1Pt, L2Pt, and L3Pt according to Examples 4 to 6 of the disclosure, the cell viability analysis of cancer cells using CCK-8 was performed on several cancer cell lines (colorectal cancer cell line (HT-29 cell line), breast cancer cell line (MCF-7 and MDA-MB-231), cervical cancer cell line (HeLa cell line), liver cancer cell line (Huh-7 and HepG2), brain glioma cell line (C6), lung cancer (A549), prostate cancer (PC3), kidney cancer (Caki-2), normal liver cell line (AML-12), embryonic kidney cell line (HEK-293), neural stem cell line (NE-4C) and normal breast epithelial cell line (MCF10a)).
as §1, §2, §3, §4, §5

[3] = tested on: MCF10a; assay: CCK-8 cell viability, MCF10a normal breast epithelial cell line; type: cell-based; conditions: for cytotoxicity against breast epithelial cells, in words: breast epithelial cells (MCF10a), FIG. 4; for IC50: serum-free medium, 24 hours, CCK-8, mean ± SD of 2 to 3 experiments
Procedure: as §6, §1, §2, §3, §4, §5

[4] = tested on: HeLa cell line; assay: CCK-8 cell viability, HeLa cervical cancer cell line; type: cell-based, human; conditions: serum-free medium, 24 hours, mean ± SD of 2 to 3 experiments
Procedure: as §6, §1, §2, §3, §4, §5

[5] = tested on: several cancer cell lines; assay: CCK-8 cell viability, panel of cancer cell lines compared in words (FIGS. 3a to 3e); type: cell-based, human; conditions: for cell toxicity on cancer cell lines compared with BTA, in words / cell toxicity on cancer cell lines compared with cisplatin, in words: Log IC50 comparison, FIGS. 3a to 3e; for cell toxicity on cancer cell lines compared with BTA, in words: comparator BTA; for cell toxicity on cancer cell lines compared with cisplatin, in words: comparator cisplatin
Procedure: as §6, §1, §2
Further, FIGS. 3a to 3e show a graph in which a IC50 value which is obtained based on 2 to 3 times executions of the cell viability analysis is converted to a Log IC50 value. […] The comparative reliability values for BTA were expressed as […], ##p<0.01, and ## #p<0.001. A red line represents the value of cisplatin. A blue line represents the value of BTA.

[6] = tested on: Huh-7; assay: CCK-8 cell viability, Huh-7 liver cancer cell line; type: cell-based, human; conditions: 24 hours, mean ± SD of 2 to 3 experiments
Procedure: as §6, §1, §2, §3, §4, §5

[7] = tested on: AML12; assay: CCK-8 cell viability, AML-12 normal liver cell line; type: cell-based; conditions: for toxicity against normal hepatocytes, in words: normal hepatocytes (AML12), FIG. 4; for IC50: serum-free medium, 24 hours, CCK-8, mean ± SD of 2 to 3 experiments
Procedure: as §1, §2, §3, §4, §5

[8] = tested on: MCF-7; assay: CCK-8 cell viability, MCF-7 breast cancer cell line; type: cell-based, human; conditions: 24 hours, mean ± SD of 2 to 3 experiments
Procedure: as §6, §1, §2, §3, §4, §5

[9] = tested on: C6; assay: CCK-8 cell viability, C6 brain glioma cell line; type: cell-based, human; conditions: 24 hours, mean ± SD of 2 to 3 experiments
Procedure: as §6, §1, §2, §3, §4, §5

[10] = tested on: HepG2; assay: CCK-8 cell viability, HepG2 liver cancer cell line; type: cell-based, human; conditions: 24 hours, mean ± SD of 2 to 3 experiments
Procedure: as §6, §1, §2, §3, §4, §5

[11] = tested on: A549; assay: CCK-8 cell viability, A549 lung cancer cell line; type: cell-based, human; conditions: serum-free medium, 24 hours, mean ± SD of 2 to 3 experiments
Procedure: as §6, §1, §2, §3, §4, §5

[12] = tested on: HEK-293; assay: CCK-8 cell viability, HEK-293 embryonic kidney cell line; type: cell-based; conditions: serum-free medium, 24 hours, mean ± SD of 2 to 3 experiments, read-out: IC50 HEK293 (embryonic kidney)
Procedure: as §6, §1, §2, §3, §4, §5

[13] = tested on: HT-29 cell line; assay: CCK-8 cell viability, HT-29 colorectal cancer cell line; type: cell-based, human; conditions: serum-free medium, 24 hours, mean ± SD of 2 to 3 experiments
Procedure: as §6, §1, §2, §3, §4, §5

[14] = tested on: Caki-2; assay: CCK-8 cell viability, Caki-2 kidney cancer cell line; type: cell-based, human; conditions: serum-free medium, 24 hours, mean ± SD of 2 to 3 experiments
Procedure: as §6, §1, §2, §3, §4, §5

[15] = tested on: PC3; assay: CCK-8 cell viability, PC3 prostate cancer cell line; type: cell-based, human; conditions: serum-free medium, 24 hours, mean ± SD of 2 to 3 experiments
Procedure: as §6, §1, §2, §3, §4, §5

[16] = Homo sapiens, MDA-MB-231, serum-free medium
[17] = Homo sapiens, Huh-7, serum-free medium
[18] = Homo sapiens, MCF7, serum-free medium
[19] = Rattus norvegicus, C6, serum-free medium

Row | IC50 [2, 16] [µM] | IC50 ([4]; Homo sapiens, HeLa) [µM] | IC50 [6, 17] [µM] | IC50 [8, 18] [µM] | IC50 [9, 19] [µM] | Structure (SMILES) | IC50 ([1]; Neural stem cell) [µM] | toxicity against brain neurons, in words [1] | cytotoxicity against breast epithelial cells, in words [3] | cell toxicity on cancer cell lines compared with BTA, in words [5] | cell toxicity on cancer cell lines compared with cisplatin, in words [5] | toxicity against normal hepatocytes, in words [7] | IC50 [1] [µM] | IC50 [11] [µM] | IC50 ([2]; serum-free medium) [µM] | IC50 [3] [µM] | IC50 [4] [µM] | IC50 ([6]; serum-free medium) [µM] | IC50 [7] [µM] | IC50 [12] [µM] | IC50 ([8]; serum-free medium) [µM] | also measured
1 | 152 ± 19.9 | 47.1 ± 6.07 | 95.9 ± 15 | 98.2 ± 7.92 | 143 ± 32.7 | O=C(Nc1ccc(-c2nc3ccccc3s2)cc1)C(C/N=C/c1ccccc1O)/N=C/c1ccccc1O (centres unmarked) [Example L2, N-(4-benzothiazol-2-yl-phenyl)-2,3-bis-[(2-hydroxy-benzylidene)-amino]-propionamide] | 28.23 ± 0.06 | greater toxicity than BTA did | weak cytotoxicity | greater cell toxicity against colorectal cancer, breast cancer, liver cancer, brain glioma, lung cancer, prostate cancer, and kidney cancer than BTA did | greater toxic effect on cancer cell lines on lung cancer, prostate cancer, and kidney cancer than cisplatin did | did not exhibit liver cytotoxicity |  |  |  |  |  |  |  |  |  | IC50 ([10]; Homo sapiens, HepG2, serum-free medium): 14.2 ± 7.06 µM
2 |  |  |  |  |  | O=C(Nc1ccc(-c2nc3ccccc3s2)cc1)C1CN=Cc2ccccc2[O][Pt][O]c2ccccc2C=N1 (centres unmarked) [Example L2Pt] |  | greater toxicity than BTA did | weaker cytotoxicity or no cytotoxicity than cisplatin and BTA did | greater cell toxicity on colorectal cancer than BTA did |  | did not exhibit liver cytotoxicity | 47 ± 4.12 | > 500 | > 500 | > 500 | 221 ± 15.8 | 197 ± 3.75 | > 500 | 212 ± 14.9 | > 500 | IC50 [13]: 173 ± 3.23 µM; IC50 ([9]; serum-free medium): > 500 µM; IC50 ([10]; serum-free medium): 31.6 ± 3.62 µM; IC50 [14]: > 500 µM; IC50 [15]: > 500 µM
3 | > 500 | 99 ± 3.54 | 178 ± 2.6 | 190 ± 16.6 | 142 ± 15.4 | O=C(Nc1ccc(-c2nc3ccccc3s2)cc1)C1CNC(c2ccccn2)=N1 (centres unmarked) [Example L3, N-(4-(benzo[d]thiazol-2-yl)phenyl)-2-(pyridin-2-yl)-4,5-dihydro-1H-imidazole-4-carboxamide] | 22.4 ± 2.44 | greater toxicity than BTA did | weaker cytotoxicity or no cytotoxicity than cisplatin and BTA did | greater cell toxicity on colorectal cancer breast cancer and brain glioma than BTA did | greater cell toxicity on prostate cancer and kidney cancer than cisplatin did | did not exhibit liver cytotoxicity |  |  |  |  |  |  |  |  |  | 
4 |  |  |  |  |  | O=C(Nc1ccc(-c2nc3ccccc3s2)cc1)C1CNC(c2ccccn2)=N1.[Cl][Pt][Cl] (centres unmarked) [Example L3Pt] |  | greater toxicity than BTA did | weaker cytotoxicity or no cytotoxicity than cisplatin and BTA did |  |  | did not exhibit liver cytotoxicity | 32.4 ± 6.02 | > 500 | > 500 | > 500 | > 500 | 173 ± 24.3 | > 500 | 206 ± 7.45 | > 500 | effect on cancer cell lines, in words ([5]; Log IC50, FIGS. 3a to 3e, no comparator): only exerts cell toxicity effects on liver cancer; IC50 [13]: > 500 µM; IC50 ([9]; serum-free medium): > 500 µM; IC50 ([10]; serum-free medium): > 500 µM; IC50 [14]: > 500 µM; IC50 [15]: > 500 µM
